Several values for one entry are separate records, joined by “and”; a condition that tells them apart may be missing. Identical values can stand only once. Like-named read-outs stand apart in the source and are kept apart here.
Columns and labels:
[1] = target: KRAS G13D (Homo sapiens (Human), UniProt P01116+P62937, G13D); assay: Ras-Raf (BRAF RBD) disruption / FRET / MOA assay, KRAS G13D; assay type: biochemical; settings: read-out: IC50* KRAS G13D FRET data
In short: (§1)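 TR-FRET read-out: a drop in ratio relative to DMSO wells marks disruption of the Ras:RAF complex, reported as IC50. Compounds (3-fold series, 10 points, top 30 μM final) incubated 3 h at 25° C before Eu-anti-His 10 nM and APC-anti-GST 50 nM, 1.5 h more.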

[2] = target: K-Ras G13C (Homo sapiens (Human), UniProt P01116+P62937, G13C); assay: Ras-Raf (BRAF RBD) disruption / FRET / MOA assay, KRAS G13C; assay type: biochemical; settings: KRAS G13C; Ras-Raf disruption/FRET/MOA assay; read-out: IC50* KRAS G13C FRET data
In short: as §1

[3] = tested on: NCI-H358 (K-Ras G12C); assay: CellTiter-Glo cell viability assay, NCI-H358; assay type: cell-based, human; settings: Homo sapiens, NCI-H358, 120 h, NCI-H358, 5-day treatment; class symbols; read-out: Additional H358 Cell Viability assay data (K-Ras G12C, IC50)
In short: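 Compounds dispensed directly onto seeded K-Ras mutant cells; plates read on day 5 after ~30 min equilibration to room temperature, by CellTiter-Glo luminescence. Signal normalized as (sample/mean DMSO)×100, then fitted to a four-parameter logistic curve.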

[4] = target: KRAS G12D (Homo sapiens (Human), UniProt P01116+P62937, G12D); assay: Ras-Raf (BRAF RBD) disruption / FRET / MOA assay, KRAS G12D; assay type: biochemical; settings: Ras-Raf disruption/FRET/MOA assay; class symbols; read-out: KRAS G12D FRET data IC50
In short: as §1

[5] = target: KRAS G12S (Homo sapiens (Human), UniProt P01116+P62937, G12S); assay: Ras-Raf (BRAF RBD) disruption / FRET / MOA assay, KRAS G12S; assay type: biochemical; settings: Ras-Raf disruption/FRET/MOA assay; class symbols; read-out: KRAS G12S FRET data IC50
In short: as §1

[6] = target: KRAS WT (Homo sapiens (Human), UniProt P01116+P62937); assay: Ras-Raf (BRAF RBD) disruption / FRET / MOA assay, KRAS WT; assay type: biochemical; settings: read-out: IC50* KRAS WT FRET data
In short: as §1

[7] = target: KRAS G12V (Homo sapiens (Human), UniProt P01116+P62937, G12V); assay: Ras-Raf (BRAF RBD) disruption / FRET / MOA assay, KRAS G12V; assay type: biochemical; settings: read-out: IC50* KRAS G12V FRET data
In short: as §1

[8] = target: NRAS G12C (Homo sapiens (Human), UniProt P01111+P62937, G12C); assay: Ras-Raf (BRAF RBD) disruption / FRET / MOA assay, NRAS G12C; assay type: biochemical; settings: read-out: IC50* NRAS G12C FRET data
In short: as §1

[9] = target: K-Ras G12C (Homo sapiens (Human), UniProt P01116+P62937, G12C); assay: Ras-Raf (BRAF RBD) disruption / FRET / MOA assay, KRAS G12C; assay type: biochemical; settings: KRAS G12C; Ras-Raf disruption/FRET/MOA assay; read-out: IC50* KRAS G12C FRET data
In short: as §1

[10] = tested on: NCI-H358 cells (K-Ras G12C); assay: Potency assay: pERK in NCI-H358 cells; assay type: cell-based, human; settings: H358 KRAS G12C, read-out: pERK EC50
In short: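 pERK decrease read by AlphaLISA SureFire p-ERK1/2 or In-Cell Western after 4 h compound exposure at 37 °C, 5% CO2.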

Sequence of NRAS G12C (P01111 whole entry G12C): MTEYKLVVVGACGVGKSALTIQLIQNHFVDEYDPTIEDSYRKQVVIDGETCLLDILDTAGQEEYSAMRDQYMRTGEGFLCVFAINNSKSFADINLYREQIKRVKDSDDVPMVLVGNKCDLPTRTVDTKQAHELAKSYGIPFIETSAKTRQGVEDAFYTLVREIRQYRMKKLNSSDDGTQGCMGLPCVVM
Sequence of NRAS G12C (P62937 whole entry): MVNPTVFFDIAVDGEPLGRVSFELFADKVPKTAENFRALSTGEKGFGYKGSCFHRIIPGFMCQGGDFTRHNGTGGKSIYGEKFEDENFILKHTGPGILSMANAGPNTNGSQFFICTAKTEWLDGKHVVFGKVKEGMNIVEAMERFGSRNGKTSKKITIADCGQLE
Sequence of KRAS G12D (P01116-2 other isoform, or with tags, fused parts or gaps G12D): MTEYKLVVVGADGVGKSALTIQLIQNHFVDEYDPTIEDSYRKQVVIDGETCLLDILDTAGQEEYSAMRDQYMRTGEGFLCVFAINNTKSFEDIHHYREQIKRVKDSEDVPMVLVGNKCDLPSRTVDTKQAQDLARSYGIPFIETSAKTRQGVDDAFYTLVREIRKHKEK
Sequence of KRAS G12D (P62937 whole entry): as the sequence (P62937 whole entry) above
Sequence of KRAS G13D (P01116-2 other isoform, or with tags, fused parts or gaps G13D): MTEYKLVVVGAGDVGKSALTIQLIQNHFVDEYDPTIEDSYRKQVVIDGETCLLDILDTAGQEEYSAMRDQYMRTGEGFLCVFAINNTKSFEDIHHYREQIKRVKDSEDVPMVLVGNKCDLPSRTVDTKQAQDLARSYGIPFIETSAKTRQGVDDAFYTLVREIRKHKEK
Sequence of KRAS G13D (P62937 whole entry): as the sequence (P62937 whole entry) above
Sequence of K-Ras G12C (P01116-2 other isoform, or with tags, fused parts or gaps G12C): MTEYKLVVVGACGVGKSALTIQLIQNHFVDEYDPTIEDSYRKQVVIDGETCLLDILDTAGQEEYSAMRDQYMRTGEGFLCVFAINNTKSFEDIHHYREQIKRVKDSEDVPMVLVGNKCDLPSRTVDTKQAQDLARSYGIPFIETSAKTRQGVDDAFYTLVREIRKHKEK
Sequence of K-Ras G12C (P62937 whole entry): as the sequence (P62937 whole entry) above
Sequence of KRAS WT (P01116-2 other isoform, or with tags, fused parts or gaps): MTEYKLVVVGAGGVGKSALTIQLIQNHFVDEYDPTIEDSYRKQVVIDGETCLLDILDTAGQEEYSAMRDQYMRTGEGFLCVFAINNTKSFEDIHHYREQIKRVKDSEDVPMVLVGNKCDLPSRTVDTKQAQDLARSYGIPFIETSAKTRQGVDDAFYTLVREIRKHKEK
Sequence of KRAS WT (P62937 whole entry): as the sequence (P62937 whole entry) above
Sequence of KRAS G12S (P01116-2 other isoform, or with tags, fused parts or gaps G12S): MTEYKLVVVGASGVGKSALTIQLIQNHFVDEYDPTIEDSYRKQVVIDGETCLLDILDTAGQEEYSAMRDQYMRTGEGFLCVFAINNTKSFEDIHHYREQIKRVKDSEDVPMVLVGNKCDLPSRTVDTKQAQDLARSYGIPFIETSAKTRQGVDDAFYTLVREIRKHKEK
Sequence of KRAS G12S (P62937 whole entry): as the sequence (P62937 whole entry) above
Sequence of K-Ras G13C (P01116-2 other isoform, or with tags, fused parts or gaps G13C): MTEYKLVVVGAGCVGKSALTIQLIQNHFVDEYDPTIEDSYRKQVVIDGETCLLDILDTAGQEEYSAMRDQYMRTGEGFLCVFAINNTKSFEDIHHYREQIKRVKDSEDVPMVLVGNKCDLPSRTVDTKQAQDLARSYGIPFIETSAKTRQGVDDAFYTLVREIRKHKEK
Sequence of K-Ras G13C (P62937 whole entry): as the sequence (P62937 whole entry) above
Sequence of KRAS G12V (P01116-2 other isoform, or with tags, fused parts or gaps G12V): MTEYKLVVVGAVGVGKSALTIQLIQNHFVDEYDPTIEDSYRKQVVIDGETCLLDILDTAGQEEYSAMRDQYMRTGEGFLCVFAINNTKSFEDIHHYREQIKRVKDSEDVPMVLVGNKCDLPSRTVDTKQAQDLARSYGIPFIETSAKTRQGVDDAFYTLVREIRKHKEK
Sequence of KRAS G12V (P62937 whole entry): as the sequence (P62937 whole entry) above

| SMILES | IC50 [1] | IC50 [2] | IC50 [3] [µM] | IC50 [4] | IC50 [5] | IC50 [6] | IC50 [7] | IC50 [8] | IC50 [9] | EC50 ([10]; Homo sapiens, NCI-H358) [µM] | EC50 [10] [µM] |
| --- | --- | --- | --- | --- | --- | --- | --- | --- | --- | --- | --- |
| C=CC(=O)N1CC[C@H](C(=O)N(C)[C@H](C(=O)N[C@H]2Cc3cccc(c3)-c3ccc4c(c3)c(c(-c3ccccc3[C@H](C)OC)n4CC)CC(C)(C)COC(=O)[C@@H]3CCCN(N3)C2=O)C(C)C)C1 (atropisomer, axis not shown) [Example A114] | > 10 µM | > 10 µM | 0.1 to 1 | > 10 µM | > 10 µM | > 10 µM | > 10 µM | > 10 µM | > 10 µM | – | – |
| C=CC(=O)N1CC[C@H](C(=O)N(C)[C@H](C(=O)N[C@H]2Cc3cccc(c3)-c3ccc4c(c3)c(c(-c3cc(C5CCN(C)CC5)cnc3[C@H](C)OC)n4CC)CC(C)(C)COC(=O)[C@@H]3CCCN(N3)C2=O)C(C)C)C1 (atropisomer, axis not shown) [Example A515] | 1 to 10 µM | 0.1 to 1 µM | – | 1 to 10 µM | 0.1 to 1 µM | 1 to 10 µM | 1 to 10 µM | 0.01 to 0.1 µM | 0.01 to 0.1 µM | < 5 | – |
| C=CC(=O)N1CC[C@H](C(=O)N(C)[C@H](C(=O)N[C@H]2Cc3nc(cs3)-c3ccc4c(c3)c(c(-c3cc(C5=CCN(C)CC5)cnc3[C@H](C)OC)n4CC)CC(C)(C)COC(=O)[C@@H]3CCCN(N3)C2=O)C(C)C)C1 (atropisomer, axis not shown) [Example A520] | 1 to 10 µM | 1 to 10 µM | – | 1 to 10 µM | 1 to 10 µM | 1 to 10 µM | 1 to 10 µM | 0.1 to 1 µM | 0.1 to 1 µM | – | < 5 |
| C=CC(=O)Nc1cnc(C(=O)N(C)[C@H](C(=O)N[C@H]2Cc3cccc(c3)-c3ccc4c(c3)c(c(-c3cccnc3[C@H](C)OC)n4CC)CC(C)(C)COC(=O)[C@@H]3CCCN(N3)C2=O)C(C)C)n1C (atropisomer, axis not shown) [Example A525] | 1 to 10 µM | 0.01 to 0.1 µM | – | 1 to 10 µM | 1 to 10 µM | 1 to 10 µM | 1 to 10 µM | 0.01 to 0.1 µM | 0.01 to 0.1 µM | – | < 5 |
| CCn1c(-c2cnccc2COC)c2c3cc(ccc31)-c1ccnc(c1)C[C@H](NC(=O)[C@H](C(C)C)N(C)C(=O)[C@H]1CCN(C(=O)C#CCN(C)C)C1)C(=O)N1CCC[C@H](N1)C(=O)OCC(C)(C)C2 [Example A130] | 1 to 10 µM | 0.1 to 1 µM | – | 1 to 10 µM | > 10 µM | > 10 µM | > 10 µM | < 0.01 µM | < 0.01 µM | < 5 | – |
| CCn1c(-c2cncnc2)c2c3cc(ccc31)-c1cccc(c1)C[C@H](NC(=O)[C@H](C(C)C)N(C)C(=O)[C@H]1CCN(C(=O)C#CCN(C)C)C1)C(=O)N1CCC[C@H](N1)C(=O)OCC(C)(C)C2 [Example A144] | 1 to 10 µM | 1 to 10 µM | – | 1 to 10 µM | > 10 µM | > 10 µM | > 10 µM | 0.01 to 0.1 µM and 0.1 to 1 µM | 0.01 to 0.1 µM and 0.1 to 1 µM | < 5 | – |
| CCn1c(-c2cccnc2COC)c2c3cc(ccc31)-c1cc(O)cc(c1)C[C@H](NC(=O)[C@H](C(C)C)N(C)C(=O)[C@H]1CCN(C(=O)C#C[C@@H]3CCCN3C)C1)C(=O)N1CCC[C@H](N1)C(=O)OCC(C)(C)C2 [Example A196] | 0.1 to 1 µM and > 10 µM | 0.01 to 0.1 µM and 0.1 to 1 µM | – | 1 to 10 µM and > 10 µM | 0.1 to 1 µM and > 10 µM | 1 to 10 µM and > 10 µM | 0.1 to 1 µM and > 10 µM | 0.01 to 0.1 µM and < 0.01 µM | 0.01 to 0.1 µM and < 0.01 µM | < 5 | – |
| CCn1c(-c2cccnc2COC)c2c3cc(ccc31)-c1cc(O)cc(c1)C[C@H](NC(=O)[C@H](C(C)C)N(C)C(=O)[C@H]1CCN(C(=O)C#CCN3[C@@H](C)COC[C@@H]3C)C1)C(=O)N1CCC[C@H](N1)C(=O)OCC(C)(C)C2 [Example A209] | 1 to 10 µM and > 10 µM | 0.1 to 1 µM and > 10 µM | – | > 10 µM | 1 to 10 µM and > 10 µM | 1 to 10 µM and > 10 µM | 0.1 to 1 µM and > 10 µM | 0.1 to 1 µM and < 0.01 µM | 0.01 to 0.1 µM and < 0.01 µM | < 5 | – |
| C=CC(=O)C1C[C@@H](C(=O)N(C)[C@H](C(=O)N[C@H]2Cc3cc(O)cc(c3)-c3ccc4c(c3)c(c(-c3ccc5c(c3)CN(C)C5)n4CC)CC(C)(C)COC(=O)[C@@H]3CCCN(N3)C2=O)C(C)C)CN1 (stereo partly drawn) [Example A212] | 1 to 10 µM and > 10 µM | 1 to 10 µM and > 10 µM | – | > 10 µM | 1 to 10 µM and > 10 µM | 1 to 10 µM and > 10 µM | 1 to 10 µM and > 10 µM | 0.1 to 1 µM and 1 to 10 µM | 0.1 to 1 µM and 1 to 10 µM | < 5 | – |
| C=CC(=O)C1C[C@@H](C(=O)N(C)[C@H](C(=O)N[C@H]2Cc3cc(O)cc(c3)-c3ccc4c(c3)c(c(-c3ccccc3CCOC)n4CC)CC(C)(C)COC(=O)[C@@H]3CCCN(N3)C2=O)C(C)C)[C@@H](OC)N1 (stereo partly drawn) [Example A214] | > 10 µM | 1 µM to 10 µM (3×) and > 10 µM | – | > 10 µM | 1 µM to 10 µM (2×) and > 10 µM (2×) | 1 to 10 µM | > 10 µM | 100 nM to 1 µM and > 10 µM (2×) | 10 nM to 100 nM (2×) and 1 µM to 10 µM (2×) | < 5 | – |
| CCn1c(-c2ccccc2CCOC)c2c3cc(ccc31)-c1cc(O)cc(c1)C[C@H](NC(=O)[C@H](C(C)C)N(C)C(=O)c1ccc(NC(=O)/C=C/CN(C)C)cc1)C(=O)N1CCC[C@H](N1)C(=O)OCC(C)(C)C2 [Example A225] | > 10 µM | 1 µM to 10 µM (3×) and > 10 µM | – | > 10 µM | 1 µM to 10 µM (2×) and > 10 µM (2×) | 1 to 10 µM | > 10 µM | 100 nM to 1 µM and > 10 µM (2×) | 10 nM to 100 nM (2×) and 1 µM to 10 µM (2×) | < 5 | – |
| CCn1c(-c2cccnc2COC)c2c3cc(ccc31)-c1cc(O)cc(c1)C[C@H](NC(=O)[C@H](C(C)C)N(C)C(=O)[C@H]1CCN(C(=O)C#CC3(N(C)C)COC3)C1)C(=O)N1CCC[C@H](N1)C(=O)OCC(C)(C)C2 [Example A241] | 1 to 10 µM | 0.1 to 1 µM | – | 1 to 10 µM and > 10 µM | 0.1 to 1 µM and 1 to 10 µM | 1 to 10 µM | 0.1 to 1 µM and 1 to 10 µM | 0.01 to 0.1 µM | 0.01 to 0.1 µM | < 5 | – |
| CO[C@@H](C)c1ncccc1-c1c2c3cc(ccc3n1CC(F)(F)F)-c1nnc(o1)C[C@H](NC(=O)[C@H](C(C)C)N(C)C(=O)[C@H]1CCN(C(=O)C#CC(C)(C)N3CCC3)C1)C(=O)N1CCC[C@H](N1)C(=O)OCC(C)(C)C2 [Example A423] | > 10 µM | 0.1 to 1 µM | – | > 10 µM | 1 to 10 µM | 1 to 10 µM | 1 to 10 µM | 0.01 to 0.1 µM | 0.01 to 0.1 µM | < 5 | – |

Reference: patent US11566007B2, “Ras inhibitors” (Revolution Medicines, Inc., priority 2019, dated 2023)
